Literature values, collected in US10016375B2, “Materials and methods for controlling infections” (priority 2013, dated 2018).

Key:
[1] = 4% chlorhexidine gluconate applied to the eyes
[2] = three consecutive cataract operations

## CC(=O)O.CC(=O)O.NC(=N\CCCCCC/N=C(N)/N=C(\N)Nc1ccc(Cl)cc1)/N=C(\N)Nc1ccc(Cl)cc1 [Chlorhexidine diacetate]
other
  Acute toxicity when applied to the eye: highly acutely toxic

## [H]/N=C(\N/C(=N/[H])NCCCCCCNC(=N)NC(=N)Nc1ccc(Cl)cc1)Nc1ccc(Cl)cc1 [Chlorhexidine gluconate]
[1]
  Corneal damage (bullous keratopathy, epithelial defects, corneal opacification) when applied to the eyes: may produce corneal damage

## [H]/N=C(\N/C(=N/[H])NCCCCCCNC(=N)NC(=N)Nc1ccc(Cl)cc1)Nc1ccc(Cl)cc1 [chlorhexidine]
[2]
  Effects in the retina or optic nerve after intraocular irrigation: No effects were observed
[2]; two of the three patients
  Corneal endothelium damage after intraocular irrigation: corneal endothelium damage was so severe that penetrating keratoplasty had to be performed
